For the first experiment, the target named is T1, GST-tagged truncated human mutant G2019S LRRK2 (Homo sapiens, UniProt Q5S007, G2019S).
T1 construct: GST-tagged truncated human mutant G2019S LRRK2; purchased Life Technologies Corporation (Carlsbad, CA)
T1 sequence (Q5S007 970-2527 G2019S limits assumed): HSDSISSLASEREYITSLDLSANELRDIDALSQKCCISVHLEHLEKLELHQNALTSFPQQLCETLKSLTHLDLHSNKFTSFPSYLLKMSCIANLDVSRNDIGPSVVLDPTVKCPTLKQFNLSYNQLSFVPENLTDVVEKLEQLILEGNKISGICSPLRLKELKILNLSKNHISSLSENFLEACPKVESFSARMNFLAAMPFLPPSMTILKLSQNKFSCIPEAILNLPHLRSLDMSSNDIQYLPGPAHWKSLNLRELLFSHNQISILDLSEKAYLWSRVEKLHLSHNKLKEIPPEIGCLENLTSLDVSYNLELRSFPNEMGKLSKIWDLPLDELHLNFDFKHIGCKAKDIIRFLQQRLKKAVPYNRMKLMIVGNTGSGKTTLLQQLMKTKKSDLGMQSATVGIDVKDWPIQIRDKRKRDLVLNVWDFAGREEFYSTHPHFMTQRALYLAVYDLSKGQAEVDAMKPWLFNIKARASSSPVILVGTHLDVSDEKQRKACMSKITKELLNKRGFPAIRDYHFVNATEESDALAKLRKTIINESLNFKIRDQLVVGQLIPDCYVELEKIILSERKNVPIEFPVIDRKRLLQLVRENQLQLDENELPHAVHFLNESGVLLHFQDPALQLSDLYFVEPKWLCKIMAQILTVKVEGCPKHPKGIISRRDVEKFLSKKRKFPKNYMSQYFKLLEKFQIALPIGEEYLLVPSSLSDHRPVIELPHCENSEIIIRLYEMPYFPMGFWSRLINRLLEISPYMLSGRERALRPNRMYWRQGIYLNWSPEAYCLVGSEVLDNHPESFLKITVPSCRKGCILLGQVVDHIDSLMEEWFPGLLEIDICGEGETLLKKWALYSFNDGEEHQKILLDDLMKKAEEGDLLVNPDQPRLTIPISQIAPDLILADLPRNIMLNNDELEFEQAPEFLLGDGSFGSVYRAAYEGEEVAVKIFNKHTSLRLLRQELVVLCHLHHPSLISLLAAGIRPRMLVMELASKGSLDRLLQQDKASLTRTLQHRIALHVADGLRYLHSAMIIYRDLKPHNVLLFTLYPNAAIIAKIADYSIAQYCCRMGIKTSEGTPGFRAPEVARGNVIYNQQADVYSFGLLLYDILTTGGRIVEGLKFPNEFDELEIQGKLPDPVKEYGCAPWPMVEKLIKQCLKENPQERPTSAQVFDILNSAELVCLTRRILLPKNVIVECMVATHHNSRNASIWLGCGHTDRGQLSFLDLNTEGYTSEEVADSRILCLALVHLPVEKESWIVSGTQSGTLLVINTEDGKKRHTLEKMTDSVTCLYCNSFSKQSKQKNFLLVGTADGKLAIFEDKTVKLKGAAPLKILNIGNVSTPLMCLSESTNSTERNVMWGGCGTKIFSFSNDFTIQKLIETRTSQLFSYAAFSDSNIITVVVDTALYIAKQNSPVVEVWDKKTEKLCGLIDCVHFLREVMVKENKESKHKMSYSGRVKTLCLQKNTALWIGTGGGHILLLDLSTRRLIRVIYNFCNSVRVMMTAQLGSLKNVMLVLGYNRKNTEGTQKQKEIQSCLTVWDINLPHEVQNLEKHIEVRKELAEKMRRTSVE
Put plainly: LRRK2 G2019S Km ATP LanthaScreen assay. It is filed as biochemical. The following applies: 134 μM ATP (Km ATP), LRRKtide substrate, mean of several tests. The protocol: Unless otherwise noted, all reactions are magnetically stirred. Unless otherwise noted, when diethyl ether is used in the experiments described below, it is Fisher ACS certified material and is stabilized with BHT. Unless otherwise noted, “concentrated” and/or “solvent removed under reduced pressure” means evaporating the solvent from a solution or mixture using a rotary evaporator or vacuum pump. Unless otherwise noted, flash chromatography is carried out on a Teledyne Isco (Lincoln, NE), Analogix (Burlington, WI), or Biotage (Stockholm, SWE) automated chromatography system using a commercially available cartridge as the column. Columns may be purchased from Teledyne Isco, Analogix, Biotage, Varian (Palo Alto, CA), or Supelco (Bellefonte, PA) and are usually filled with silica gel as the stationary phase. Reverse phase prep-HPLC conditions, where used, can be found at the end of each experimental section. Aqueous solutions were concentrated on a Genevac (Ipswich, ENG) or by freeze-drying/lyophilization. Unless otherwise noted, all LRRK2 pIC50 data presented in tables refers to the LRRK2 G2019S Km ATP LanthaScreen™ assay (Life Technologies Corp., Carlsbad, CA) that is described in the Biological Assay section.
Biological Assay: LRRK2 Km ATP LanthaScreen™ Assay
The LRRK2 kinase activity reported herein as IC50 values was determined with LanthaScreen™ technology from Life Technologies Corporation (Carlsbad, CA) using GST-tagged truncated human mutant G2019S LRRK2 in the presence of the fluorescein-labeled peptide substrate LRRKtide, also from Life Technologies. The data presented for the Km ATP LanthaScreen™ Assay represents mean IC50 values based on several test results and may have reasonable deviations depending on the specific conditions and reagents used. Assays were performed in the presence of 134 μM ATP (Km ATP). Upon completion, the assay was stopped and phosphorylated substrate detected with a terbium (Tb)-labeled anti-pERM antibody (cat. no. PV4898). The compound dose response was prepared by diluting a 10 mM stock of compound to a maximum concentration of 9.99 μM in 100% dimethylsulfoxide followed by custom fold serial dilution in dimethylsulfoxide nine times. Twenty nanoliters of each dilution was spotted via a Labcyte Echo onto a 384-well black-sided plate (Corning 3575) followed by 15 μl of a 1.25 nM enzyme solution in 1× assay buffer (50 mM Tris pH 8.5, 10 mM MgCl2, 0.01% Brij-35, 1 mM EGTA, 2 mM dithiothreitol, 0.05 mM sodium orthovanadate). Following a 15-minute incubation at room temperature, the kinase reaction was started with the addition of 5 μl of 400 nM fluorescein-labeled LRRKtide peptide substrate and 134 μM ATP solution in 1× assay buffer. The reaction was allowed to progress at ambient temperature for 90 minutes. The reaction was then stopped by the addition of 20 μl of TR-FRET Dilution Buffer (Life Technologies, Carlsbad, CA) containing 2 nM Tb-labeled anti-phospho LRRKtide antibody and 10 mM EDTA (Life Technologies, Carlsbad, CA). After an incubation of 1 hour at room temperature, the plate was read on an EnVision multimode plate reader (Perkin Elmer, Waltham, MA) with an excitation wavelength of 337 nm (Laser) and a reading emission at both 520 and 495 nm. Compound IC50s were interpolated from nonlinear regression best fits of the log of the final compound concentration, plotted as a function of the 520/495-nm emission ratio using Activity base. Abase uses a 4 parameter (4P) logistic fit based on the Levenberg-Marquardt algorithm.
On the technique in general: TR-FRET usually uses a lanthanide donor and a delayed reading to cut background.
In the case of `Cc1cc2cnc(NC(=O)C3CC34CCOCC4)cc2cc1N1CCN(C2(C)COCC2O)[C@@H](C)C1` (stereo partly drawn) [Ex-6.10], the “LRRK2 pIC50” value came out at 9.26.

Take `CC1(N2CCN(c3cc4cc(NC(=O)C5CCCO5)ncc4cc3Cl)CC2)COCC1O` (stereo not drawn) [Ex-9.4]: the “LRRK2 pIC50” value was determined as 8.40.

Regarding `CN1CCN(c2cc3cc(NC(=O)C4CC4)ncc3cc2Cl)CC1` [Ex-8.2], the “LRRK2 pIC50” value is on record as 7.53.

Regarding `Cn1cc(C2CC2C(=O)Nc2cc3cc(N4CCC(F)(C#N)CC4)c(Cl)cc3cn2)cn1` (stereo not drawn) [Ex-4.11], the “LRRK2 pIC50” value came out at 7.39.

Regarding “(1R,2R,3R, or 1R,2S,3R, or 1S,2R,3S, or 1S,2S,3S)-N-[6-[4-((3R,4R or 3S,4S)-4-fluoro-3-methyl-tetrahydrofuran-3-yl)piperazin-1-yl]-7-methyl-3-isoquinolyl]-2-methyl-3-(1-methylpyrazol-4-yl)cyclopropanecarboxamide [Ex-10.58]”, the “LRRK2 pIC50” value worked out at 10.09.

Regarding `CC(C)OC1CCC(C(=O)Nc2cc3cc(N4CCN(C5(C)COCC5O)CC4)c(Cl)cc3cn2)OC1` (stereo not drawn) [Ex-9.5], the “LRRK2 pIC50” value is on record as 8.28.

“(1R,2R or 1S,2S)-N-[6-[4-((3R,4R or 3S,4S)-4-fluoro-3-methyl-tetrahydrofuran-3-yl)piperazin-1-yl]-7-methyl-3-isoquinolyl]-2-(1-methylpyrazol-3-yl)cyclopropanecarboxamide [Ex-10.59]”: the “LRRK2 pIC50” value turned out to be 10.09.

The same experiment, now with this note: 134 μM ATP (Km ATP), LRRKtide substrate, mean of several tests, read-out: LRRK2 pIC50 (converted).
Regarding `CC1(N2CCN(c3cc4cc(NC(=O)C5CC56CCCOC6)ncc4cc3Cl)CC2)COCC1O` (single isomer, unassigned) [Ex-1.11, (1R,3S, or 1R,3R, or 1S,3S, or 1S,3R)-N-(7-chloro-6-(4-((3R,4R or 3S,4S)-4-hydroxy-3-methyltetrahydrofuran-3-yl)piperazin-1-yl)isoquinolin-3-yl)-5-oxaspiro[2.5]octane-1-carboxamide], the IC50 is 1.7 nM.

For `CCC1C(C(=O)Nc2cc3cc(N4CCN(C5(C)COCC5F)CC4)c(Cl)cc3cn2)C1c1ccn(C)n1` (single isomer, unassigned) [Ex-10.51, (1R,2R,3R, 1R,2S,3R, or 1S,2R,3S, or 1S,2S,3S)-N-[7-chloro-6-[4-((3R,4R or 3S,4S)-4-fluoro-3-methyl-tetrahydrofuran-3-yl)piperazin-1-yl]-3-isoquinolyl]-2-ethyl-3-(1-methylpyrazol-3-yl)cyclopropanecarboxamide], the IC50 is 0.0813 nM.

Turning to `CC1(N2CCN(c3cc4cc(NC(=O)C5CC56CC6(F)F)ncc4cc3Cl)CC2)COCC1O` (single isomer, unassigned) [Ex-3.1, (1R,3R or 1R,3S, 1S,3R, 1S,3S)-N-(7-chloro-6-(4-((3R,4R or 3S,4S)-4-hydroxy-3-methyltetrahydrofuran-3-yl)piperazin-1-yl)isoquinolin-3-yl)-4,4-difluorospiro[2.2]pentane-1-carboxamide], the IC50 is 0.977 nM.

`CC1(C2CCOC2)CC1C(=O)Nc1cc2cc(N3CCN(C4(C)COCC4O)CC3)c(Cl)cc2cn1` (single isomer, unassigned) [Ex-10.84, (1R,2R or 1S,2S, or 1R,2S, or 1S,2R)-N-[7-chloro-6-[4-((3R,4R or 3S,4S)-4-hydroxy-3-methyl-tetrahydrofuran-3-yl)piperazin-1-yl]-3-isoquinolyl]-2-methyl-2-tetrahydrofuran-3-yl-cyclopropanecarboxamide]: the IC50 was 0.214 nM.

For `CC1(N2CCN(c3cc4cc(NC(=O)C5CC56CCOCC6)ncc4cc3Cl)CC2)COCC1C#N` (racemic) [Ex-18.1], the IC50 is 0.912 nM.

Regarding `Cc1cc2cnc(NC(=O)C3CCOC(C)(C)C3)cc2cc1N1CCN(C2(C)CCOC2)CC1` (single isomer, unassigned) [Ex-10.44, (4R or 4S)-2,2-dimethyl-N-[7-methyl-6-[4-((R or S)-3-methyltetrahydrofuran-3-yl)piperazin-1-yl]-3-isoquinolyl]tetrahydropyran-4-carboxamide], the IC50 was 209 nM.

For `CC1(N2CCN(c3cc4cc(NC(=O)C5CC5C(F)F)ncc4cc3Cl)CC2)COCC1F` (single isomer, unassigned) [Ex-10.76, (1R,2R or 1S,2S)-N-[7-chloro-6-[4-((3R,4R or 3S,4S)-4-fluoro-3-methyl-tetrahydrofuran-3-yl)piperazin-1-yl]-3-isoquinolyl]-2-(difluoromethyl)cyclopropanecarboxamide], the IC50 is 0.0813 nM.

`CC1(N2CCN(c3cc4cc(NC(=O)C5CC6(CC6)C5)ncc4cc3Cl)CC2)COCC1O` (single isomer, unassigned) [Ex-2.17, N-(7-chloro-6-(4-((3R,4R or 3S,4S)-4-hydroxy-3-methyltetrahydrofuran-3-yl)piperazin-1-yl)isoquinolin-3-yl)spiro[2.3]hexane-5-carboxamide]: the IC50 is 0.955 nM.

In the case of `COC1CC(C(=O)Nc2cc3cc(N4CCN(C5(C)COCC5O)CC4)c(Cl)cc3cn2)C1` (single isomer, unassigned) [Ex-7.1], the IC50 was 0.832 nM.

Turning to `Cc1cc2cnc(NC(=O)C3CC34CCOCC4)cc2cc1N1CCN(C2(C)COCC2O)CC1` (single isomer, unassigned) [Ex-6.1], the IC50 was 0.355 nM.

Take `Cc1cc2cnc(NC(=O)C3CC34CCOC4)cc2cc1N1CCN(C2(C)COCC2O)CC1` (single isomer, unassigned) [Ex-6.4, (1R, 3S or 1S,3R, or 1R,3S, or 1S,3S)-N-(6-(4-((3R, 4R or 3S,4S)-4-hydroxy-3-methyltetrahydrofuran-3-yl)piperazin-1-yl)-7-methylisoquinolin-3-yl)-5-oxaspiro[2.4]heptane-1-carboxamide]: the IC50 was 1.07 nM.

As to `COC1COCC1(C)N1CCN(c2cc3cc(NC(=O)C4CC45CCOCC5)ncc3cc2Cl)CC1` (single isomer, unassigned) [Ex-5.6], the IC50 is 316 nM.

As to `COC1COCC1(C)N1CCN(c2cc3cc(NC(=O)C4CC45CCOCC5)ncc3cc2Cl)CC1` (single isomer, unassigned) [Ex-5.5], the IC50 was 2.63 nM.

Turning to `Cc1cc2cnc(NC(=O)C3CC34CCOC4)cc2cc1N1CCN(C2(C)COCC2O)CC1` (single isomer, unassigned) [Ex-6.5, (1R, 3S or 1S,3R, or 1R,3S, or 1S,3S)-N-(6-(4-((3R, 4R or 3S,4S)-4-hydroxy-3-methyltetrahydrofuran-3-yl)piperazin-1-yl)-7-methylisoquinolin-3-yl)-5-oxaspiro[2.4]heptane-1-carboxamide], the IC50 is 1.05 nM.

With `O=C(Nc1cc2cc(N3CCN(C4COCC4O)CC3)c(Cl)cc2cn1)C1CC12CCOCC2` (single isomer, unassigned) [Ex-2.5, (R or S)-N-(7-chloro-6-(4-((3R,4R or 3S,4S)-4-hydroxytetrahydrofuran-3-yl)piperazin-1-yl)isoquinolin-3-yl)-6-oxaspiro[2.5]octane-1-carboxamide], the IC50 is 41.7 nM.

As for `CCC1C(C(=O)Nc2cc3cc(N4CCN(C5(C)CCOC5)CC4)c(C)cc3cn2)C1c1cnn(C)c1` (single isomer, unassigned) [Ex-10.38, (1R,2R,3R, 1R,2S,3R, 1S,2R,3S, or 1S,2S,3S)-2-ethyl-N-[7-methyl-6-[4-((R or S)-3-methyltetrahydrofuran-3-yl)piperazin-4-ium-1-yl]-3-isoquinolyl]-3-(1-methylpyrazol-4-yl)cyclopropanecarboxamide], the IC50 is 0.759 nM.

Turning to `CC1C(C(=O)Nc2cc3cc(N4CCN(C5(C)CCOC5)CC4)c(Cl)cc3cn2)C1c1cnn(C)c1` (stereo not drawn) [Ex-9.6], the IC50 is 1 nM.

For the origin of these results see patent publication US12516039B2, “N-linked isoquinoline amides as LRRK2 inhibitors, pharmaceutical compositions, and uses thereof” (Merck Sharp & Dohme LLC, priority 2020, dated 2026).
